Legend:
[1] = system: CCRF-CEM; experiment: Cell cycle arrest in human CCRF-CEM cells assessed as BrdU incorporation at IC50 measured after 24 hrs by propidium iodide/immunostaining based flow cytometry (reference value: 60.0%); format: functional
[2] = system: BJ; experiment: Cytotoxicity against human BJ cells incubated for 72 hrs by MTS assay; format: cell-based
[3] = system: CCRF-CEM; experiment: Cell cycle arrest in human CCRF-CEM cells assessed as phosphorylation of histone H3 at Ser10 at 5 times IC50 measured after 24 hrs by propidium iodide staining based flow cytometry (reference value: 2.0%); format: functional
[4] = system: K562; experiment: Cytotoxicity against human paclitaxel-resistant K562 cells incubated for 72 hrs by MTS assay; format: functional, cell-based; details: K562, 72 h
[5] = system: CCRF-CEM; experiment: Cell cycle arrest in human CCRF-CEM cells assessed as accumulation at S phase at 5 times IC50 measured after 24 hrs by propidium iodide staining based flow cytometry (reference value: 42.2%); format: functional
[6] = system: CCRF-CEM; experiment: Cell cycle arrest in human CCRF-CEM cells assessed as accumulation at S phase at IC50 measured after 24 hrs by propidium iodide staining based flow cytometry (reference value: 42.2%); format: functional
[7] = system: K562; experiment: Cytotoxicity against human K562 cells incubated for 72 hrs by MTS assay; format: functional, cell-based; details: K562, 72 h
[8] = system: CCRF-CEM; experiment: Cell cycle arrest in human CCRF-CEM cells assessed as accumulation at G0/G1 phase at IC50 measured after 24 hrs by propidium iodide staining based flow cytometry (reference value: 35.2%); format: functional
[9] = system: CCRF-CEM; experiment: Cell cycle arrest in human CCRF-CEM cells assessed as BrU incorporation at 5 times IC50 measured after 24 hrs by propidium iodide/immunostaining based flow cytometry (reference value: 52.2%); format: functional
[10] = system: CCRF-CEM; experiment: Cell cycle arrest in human CCRF-CEM cells assessed as accumulation at G2/M phase at IC50 measured after 24 hrs by propidium iodide staining based flow cytometry (reference value: 22.6%); format: functional
[11] = system: CCRF-CEM; experiment: Cell cycle arrest in human CCRF-CEM cells assessed as accumulation at G2/M phase at 5 times IC50 measured after 24 hrs by propidium iodide staining based flow cytometry (reference value: 22.6%); format: functional
[12] = system: HCT-116; experiment: Cytotoxicity against p53-deficient human HCT-116 cells incubated for 72 hrs by MTS assay; format: functional, cell-based; details: HCT-116, 72 h
[13] = system: HCT-116; experiment: Cytotoxicity against human HCT-116 cells incubated for 72 hrs by MTS assay; format: functional, cell-based; details: HCT-116, 72 h
[14] = system: CCRF-CEM; experiment: Cell cycle arrest in human CCRF-CEM cells assessed as accumulation at sub-G1 phase at IC50 measured after 24 hrs by propidium iodide staining based flow cytometry (reference value: 2%); format: functional
[15] = system: CCRF-CEM; experiment: Cell cycle arrest in human CCRF-CEM cells assessed as BrU incorporation at IC50 measured after 24 hrs by propidium iodide/immunostaining based flow cytometry (reference value: 52.2%); format: functional
[16] = system: A549; experiment: Cytotoxicity against human A549 cells incubated for 72 hrs by MTS assay; format: functional, cell-based; details: A549, 72 h
[17] = system: CCRF-CEM; experiment: Cell cycle arrest in human CCRF-CEM cells assessed as phosphorylation of histone H3 at Ser10 at IC50 measured after 24 hrs by propidium iodide staining based flow cytometry (reference value: 2.0%); format: functional
[18] = system: CCRF-CEM; experiment: Cytotoxicity against human CCRF-CEM cells incubated for 72 hrs by MTS assay; format: functional, cell-based
[19] = system: CCRF-CEM; experiment: Cell cycle arrest in human CCRF-CEM cells assessed as BrdU incorporation at 5 times IC50 measured after 24 hrs by propidium iodide/immunostaining based flow cytometry (reference value: 60.0%); format: functional
[20] = system: CCRF-CEM; experiment: Cell cycle arrest in human CCRF-CEM cells assessed as accumulation at sub-G1 phase at 5 times IC50 measured after 24 hrs by propidium iodide staining based flow cytometry (reference value: 2%); format: functional
[21] = system: CCRF-CEM; experiment: Cytotoxicity against human daunorubicine-resistant CCRF-CEM cells incubated for 72 hrs by MTS assay; format: functional, cell-based
[22] = system: CCRF-CEM; experiment: Cell cycle arrest in human CCRF-CEM cells assessed as accumulation at G0/G1 phase at 5 times IC50 measured after 24 hrs by propidium iodide staining based flow cytometry (reference value: 35.2%); format: functional
[23] = species on record: Sus scrofa; experiment: Inhibition of porcine brain tubulin polymerization assessed as Vmax of polymerization at 10 umol/L measured at 60 secs interval for 30 mins by turbidometric method; details: dose 10.0 µmol/L

| Compound | IC50 [2] | IC50 [4] | IC50 [7] | IC50 [12] | IC50 [13] | IC50 [16] | IC50 [18] | IC50 [21] | also measured |
| --- | --- | --- | --- | --- | --- | --- | --- | --- | --- |
| O=c1c(O)c(-c2cccc(F)c2)[nH]c2ccccc12 | > 50 µM | 7.5 µM | 12.9 µM | 50 µM | 27.1 µM | 13.1 µM | 7.3 µM | 50 µM | Activity [1]: 26.7%; Activity [3]: 0.2%; Activity [5]: 19.9%; Activity [6]: 32.6%; Activity [8]: 34.9%; Activity [9]: 3.8%; Activity [10]: 32.6%; Activity [11]: 27.5%; Activity [14]: 5.4%; Activity [15]: 33.7%; Activity [17]: 1%; Activity [19]: 22.4%; Activity [20]: 15.9%; Activity [22]: 52.6% |
| O=c1c(O)c(-c2ccccc2)[nH]c2cc(F)c(F)cc12 | > 50 µM | 17.4 µM | 18.9 µM | 22.6 µM | 15.1 µM | 18.2 µM | 12.6 µM | 12.8 µM |  |
| O=c1c(O)c(-c2ccccc2)[nH]c2cc(F)c(N3CCN(CCOCCO)CC3)cc12 | > 50 µM | > 50 µM | 47.7 µM | 29.4 µM | > 50 µM | > 50 µM | 19.8 µM | > 50 µM |  |
| O=c1c(O)c(-c2ccccc2)[nH]c2cc(F)cc(F)c12 | > 50 µM | 19.8 µM | 21.6 µM | > 50 µM | 22.5 µM | 19.6 µM | 4.6 µM | 18 µM | Activity [1]: 65.7%; Activity [3]: 0.9%; Activity [5]: 51.6%; Activity [6]: 48.4%; Activity [8]: 33%; Activity [9]: 53.7%; Activity [10]: 18.6%; Activity [11]: 21.8%; Activity [14]: 0.8%; Activity [15]: 57.2%; Activity [17]: 2.1%; Activity [19]: 79%; Activity [20]: 1.4%; Activity [22]: 26.6% |
| O=c1c(O)c(-c2ccccc2)[nH]c2cc(F)c(N3CCOCC3)cc12 | > 50 µM | 12.8 µM | 19.3 µM | > 50 µM | 5.2 µM | 13.6 µM | > 50 µM | 11.7 µM |  |
| O=c1c(O)c(-c2ccc(F)cc2)[nH]c2ccccc12 | > 50 µM | 8.6 µM | 40.4 µM | 36.5 µM | 34 µM | 18.1 µM | 2.4 µM | 9.4 µM | Activity [1]: 35.5%; Activity [3]: 1.6%; Activity [5]: 13.5%; Activity [6]: 24.2%; Activity [8]: 39.6%; Activity [9]: 32.1%; Activity [10]: 36.2%; Activity [11]: 40.7%; Activity [14]: 4.4%; Activity [15]: 31.3%; Activity [17]: 1.5%; Activity [19]: 25.2%; Activity [20]: 8.4%; Activity [22]: 45.9% |
| O=c1c(O)c(-c2ccccc2)[nH]c2cc(F)ccc12 | > 50 µM | 21.4 µM | 21.7 µM | 43.9 µM | > 50 µM | 19.5 µM | 17.8 µM | 17.5 µM |  |
| O=c1c(O)c(-c2ccccc2)[nH]c2ccc(F)cc12 | > 50 µM | 20.3 µM | 18.8 µM | 17.4 µM | > 50 µM | 18.8 µM | 17.8 µM | 15.3 µM |  |
| COC(=O)Nc1nc2cc(C(=O)c3cccs3)ccc2[nH]1 |  |  |  |  |  |  |  |  | Vmax (milli optical density/minute) [23]: 7.6 |
| CC(=O)O[C@H]1C(=O)[C@@]2(C)[C@H]([C@H](OC(=O)c3ccccc3)[C@]3(O)C[C@H](OC(=O)[C@H](O)[C@@H](NC(=O)c4ccccc4)c4ccccc4)C(C)=C1C3(C)C)[C@]1(OC(C)=O)CO[C@@H]1C[C@@H]2O |  |  |  |  |  |  |  |  | Vmax (milli optical density/minute) [23]: 63.3 |
| O=c1c(O)c(-c2ccccc2)[nH]c2c(F)c(F)c(F)c(F)c12 | > 50 µM | 16.8 µM | > 50 µM | > 50 µM | > 50 µM | > 50 µM | 19.5 µM | > 50 µM |  |
| O=c1c(O)c(-c2ccccc2F)[nH]c2ccccc12 | > 50 µM | 22.2 µM | 33.7 µM | 34.2 µM | 35.1 µM | 31.7 µM | 17.4 µM | 50 µM |  |

Source: ChEMBL document CHEMBL4680214, “Fluorinated derivatives of 2-phenyl-3-hydroxy-4(1H)-quinolinone as tubulin polymerization inhibitors” (Eur J Med Chem, 2020)
